Experiment [1] deals with NF-κB activation in HT-29 cells. Description: TNF-induced NF-κB activation, western blot of IκB-α and phospho-IκB-α. The experiment is classed as cell-based, human. The note with it: TNF-α 40 ng/ml 15 min. How it is done:
Further, we evaluated the selectivity of PK68 against a panel of 369 kinases provided by Reaction Biology (at 1000 nM). […] In addition, we followed on some of the active “hits” from the kinome scan. PK68 was tested against TNIK and TRKA by a reputable CRO company. […] RIPK1 is known to mediate NF-κB activation independently of its kinase activity. […] It has been shown that homodimerization of RIPK3 or MLKL induced by the dimerizer leads to necroptosis bypassing the upstream signals[10],[37]. […] This dimerized RIPK3-induced necroptosis was blocked by RIPK3 inhibitor GSK873 but was not blocked by the RIPK1 inhibitor necrostatin-1. […] (Fig. 4e).
HT-29 cells were pretreated with indicated compounds for 1h prior to stimulation with TNF-α (40ng/ml) for 15 minutes. The levels of IκB-α and phosphor-IκB-α were analyzed by western blot analysis. The NF-κB inhibitor BMS-345541 was used as a positive control.
For orientation: A western blot detects proteins with antibodies after separation by electrophoresis.

Another experiment relates to NIH3T3-RIPK3 cells. Kind of experiment: TNF-induced necroptosis (T/S/Z). The experiment is classed as cell-based, mouse. The note with it: T/S/Z 24 h. How it is done:
Recombinant proteins were incubated with PK6 and PK68 as indicated. […] NIH3T3-RIPK3 cells were pretreated with indicated compounds for 1 h and subsequently treated with T (40 ng/ml)/S (100 nM)/Z (20 μM) or AP20187 (100 nM) for 24 h. Cell viability was determined by measuring ATP levels. e PK6 and PK68 have no effect on MLKL dimerization-induced cell death in HeLa-MLKL (1–190) cells that stably express MLKL (1–190aa) fused to DmrB. HeLa-MLKL (1–190) cells were pretreated with indicated compounds for 1 h and subsequently treated with AP20187 (100 nM) for 24 h. Cell viability was determined by measuring ATP levels.
The cell viability was analyzed by using the CellTiter-Glo Luminescent Cell Viability Assay kit following the manufacturer’s instructions (Promega). Luminescence was measured with SpectraMax i3x (Molecular Devices).

The target of another experiment is T1, RIPK3 (Homo sapiens, UniProt Q9Y572).
T1 construct: purchased Reaction Biology Corporation
Kind of experiment: In vitro kinase activity assay (ADP-Glo). In kind it is biochemical. As to conditions: even at a 1000 nM concentration. Here is the method: Having shown that PK6 and PK68 can inhibit activation of both RIPK1 and RIPK3 during TNF-mediated necroptosis, we sought to determine if PK6 and PK68 can directly target RIPK1 or and RIPK3 by performing in vitro kinase assays. Both PK6 and PK68 were able to block the kinase activities of both human RIPK1 and mouse RIPK1 in vitro (Fig. 4a and Supplementary Fig. 19).
Recombinant proteins were incubated with PK6 and PK68 as indicated. […] NIH3T3-RIPK3 cells were pretreated with indicated compounds for 1 h and subsequently treated with T (40 ng/ml)/S (100 nM)/Z (20 μM) or AP20187 (100 nM) for 24 h. Cell viability was determined by measuring ATP levels. e PK6 and PK68 have no effect on MLKL dimerization-induced cell death in HeLa-MLKL (1–190) cells that stably express MLKL (1–190aa) fused to DmrB. HeLa-MLKL (1–190) cells were pretreated with indicated compounds for 1 h and subsequently treated with AP20187 (100 nM) for 24 h. Cell viability was determined by measuring ATP levels. […]
The recombinant RIPK1 or RIPK3 protein was incubated with DMSO or the indicated compound for 15 min in the assay buffer (25 mM HEPES pH 7.2, 20 mM MgCl2, 12.5 mM MnCl2, 12.5 mM β-glycerol phosphate, 5 mM EGTA, 2 mM EDTA, and 2 mM DTT). […] The luminescence was measured to calculate the kinase activity after the addition of the ADP-Glo Kinase Assay kit following the manufacturer’s instructions (Promega).

Entries after “also recorded” stand apart in the source; their conditions may differ.

T1 sequence (Q9Y572 whole entry): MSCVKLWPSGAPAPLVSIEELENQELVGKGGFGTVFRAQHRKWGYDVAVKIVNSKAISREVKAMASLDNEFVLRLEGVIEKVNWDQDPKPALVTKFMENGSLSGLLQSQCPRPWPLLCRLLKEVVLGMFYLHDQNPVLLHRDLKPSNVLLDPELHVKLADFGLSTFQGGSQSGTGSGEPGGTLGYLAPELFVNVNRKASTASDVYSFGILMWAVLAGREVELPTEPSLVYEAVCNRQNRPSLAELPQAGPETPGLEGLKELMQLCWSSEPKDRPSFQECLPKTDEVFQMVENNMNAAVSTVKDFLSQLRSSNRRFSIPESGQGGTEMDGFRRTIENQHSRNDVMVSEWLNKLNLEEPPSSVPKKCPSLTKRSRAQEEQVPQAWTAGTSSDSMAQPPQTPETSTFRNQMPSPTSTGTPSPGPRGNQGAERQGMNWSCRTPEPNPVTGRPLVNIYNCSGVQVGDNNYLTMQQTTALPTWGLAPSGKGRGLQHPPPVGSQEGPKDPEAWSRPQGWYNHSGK

Take `CC(=O)Nc1nc2ccc(-c3cnc(Cl)c(NC(=O)Cc4ccccc4)c3)cc2s1` [PK6, N-(5-(2-acetamidobenzo[d]thiazol-6-yl)-2-chloropyridin-3-yl)-2-phenylacetamide]: the “TNF-induced NF-κB activation” value in experiment [1] is on record as “no obvious effects; also recorded: no impact; also recorded: no effect”. Besides, in the experiment on NIH3T3-RIPK3 cells, the “TNF-induced necroptosis in NIH3T3-RIPK3 cells” value is reported as “inhibit”. Besides, on RIPK3, the RIPK3 kinase activity entry is “neither PK6 nor PK68 affected RIPK3 kinase activity”.
In the same order, the values of `CC(=O)Nc1nc2ccc(-c3cnc(C)c(NC(=O)OC4CCCCC4)c3)cc2s1` [PK68, cyclohexyl (5-(2-acetamidobenzo[d]thiazol-6-yl)-2-methylpyridin-3-yl)carbamate] are “no obvious effects; also recorded: no impact; also recorded: no effect”, “inhibit” and “neither PK6 nor PK68 affected RIPK3 kinase activity”.

The values are drawn from paper PMC6591251, “Discovery of potent necroptosis inhibitors targeting RIPK1 kinase activity for the treatment of inflammatory disorder and cancer metastasis” (Cell Death & Disease, 2019).
